Laboratory results: paper PMC11195807, “Development of a multi-targeted chemotherapeutic approach based on G-quadruplex stabilisation and carbonic anhydrase inhibition” (Journal of Enzyme Inhibition and Medicinal Chemistry, 2024)
pIC50: −log10 of the molar value.

System: HeLa cells
Test: MTT assay, HeLa cells under hypoxic conditions (CoCl2)
Assay type: cell-based
Method: Taking into consideration the good cytotoxicity of C-4,2 on cancer cells and its ability to stabilise GQ structures also in the cellular environment, we decided to further evaluate its antitumor potential by testing it under hypoxic conditions, when expression of high amounts of CA IX occurs. To this aim, HeLa cells were pre-treated for 60 h with a non-toxic concentration of cobalt(II) chloride hexahydrate (CoCl2, 50 μM, Figure S14, Supporting Information), which was employed as the chemical inducer of HIF-1α to establish hypoxia[70]^,[71]. After that, HeLa were exposed to increasing concentrations of C-4,2 or vehicle, for the following 12 h, still in the presence of CoCl2. […]
For the MTT experiments in the presence of normal oxygen levels, HeLa cells were seeded in 96-well plates at a density of 15,000 cells per well (culture medium volume – 100 μL/well) and incubated at 37 °C, for 24 h. […] Finally, the optical density of the samples (at 570 nm) was measured on an ELx800 Absorbance Microplate Reader (BioTek Instruments, Inc., Winooski, VT, USA). The percentage (%) of cell survival for each condition was calculated by using the following equation: % cell survival=OD− OD0/ODCONTROL− OD0×100 where OD is the optical density of the sample, OD0 is the optical density of the background signal, and ODCONTROL is the optical density of the control sample (cells treated with vehicle, 0.5% DMSO). […]

## COc1ccc2cc3[n+](cc2c1OCCCCn1cc(COc2ccc4ccc(=O)oc4c2)nn1)CCc1cc2c(cc1-3)OCO2 [Compound 37, 10-Methoxy-9–(4-(4-(((2-oxo-2H-chromen-7-yl)oxy)methyl)-1H-1,2,3-triazol-1-yl)butoxy)-5,6-dihydro-[1,3]dioxolo[4,5-g]isoquinolino[3,2-a]isoquinolin-7-ium hexafluorophosphate]
12 h, hypoxia (CoCl2)
  cytotoxicity compared with co-exposure to equimolar berberine and C: greater
Homo sapiens, 60 h pre-treatment with 50 μM CoCl2, then 12 h treatment, hypoxia
  pIC50: 4.58
